Legend:
CDKs and other kinases [1] = target: T1, CDKs and other kinases (Homo sapiens, UniProt P50613); experiment: Radiometric kinase assay (Eurofins Pharma Discovery or Reaction Biology Corporation Kinase Profiler); format: biochemical; conditions: CDK7H; for remaining activity at 10 µM: compound at 10 μM, read-out: residual activity (%) at 10 μM CDK7H; for Ki: read-out: CDK inhibition, Ki (μM) CDK7H
T1 construct: other: CDK7H; residual activity (%) at 10 μM CDK7H; compound at 10 μM
Method in brief: (§1)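 Other CDKs and further kinases were profiled externally by radiometric assay. In-house ADP Glo assays covered CDK4/D1 and CDK6/D3 (RB-CTF substrate, pH 7.5 Tris buffer with MgCl2, DTT, BSA) and CDK9/T1 (RBER-IRStide substrate), 40 min at 37° C.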

CDKs and other kinases [2] = target: T2, CDKs and other kinases (Homo sapiens, UniProt P06493); experiment: as above; format: biochemical; conditions: CDK1B; for remaining activity at 10 µM: compound at 10 μM, read-out: residual activity (%) at 10 μM CDK1B; for Ki: read-out: CDK inhibition, Ki (μM) CDK1B
T2 construct: other: CDK1B; residual activity (%) at 10 μM CDK1B; compound at 10 μM
Method in brief: as §1

CDKs and other kinases [3] = target: T3, CDKs and other kinases (Homo sapiens, UniProt P24941); experiment: as above; format: biochemical; conditions: CDK2A; for remaining activity at 10 µM: compound at 10 μM, read-out: residual activity (%) at 10 μM CDK2A; for Ki: read-out: CDK inhibition, Ki (μM) CDK2A
T3 construct: other: CDK2A; residual activity (%) at 10 μM CDK2A; compound at 10 μM
Method in brief: as §1

CDK6/D3 = CDK6/D3 (Homo sapiens, UniProt Q00534); experiment: ADP Glo Kinase assay CDK6/D3; format: biochemical; conditions: CDK6D3; for remaining activity at 10 µM: compound at 10 μM, read-out: residual activity (%) at 10 μM CDK6D3
Method in brief: (§2)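 Compounds tested at 10 concentrations (10 μM to 0.5 nM, 1:3 steps) against CDK4/D1 or CDK6/D3, RB-CTF substrate, Tris pH 7.5 buffer with MgCl2, DTT and BSA.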

leukemia cell lines = experiment: Resazurin cell viability assay on leukemia cell lines (72 h growth inhibition, GI50); format: cell-based; conditions: Homo sapiens, MV4-11 cells
Method in brief: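 GI50 values from non-linear regression of growth inhibition; read-out was MTT for solid tumour cells, resazurin for leukaemia cells.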

CDK4/D1 = CDK4/D1 (Homo sapiens, UniProt P11802); experiment: ADP Glo Kinase assay CDK4/D1; format: biochemical; conditions: CDK4D1; for remaining activity at 10 µM: compound at 10 μM, read-out: residual activity (%) at 10 μM CDK4D1
Method in brief: as §2

CDK9/T1 = CDK9/T1 (Homo sapiens, UniProt P50750); experiment: ADP Glo Kinase assay CDK9/T1; format: biochemical; conditions: CDK9T1; read-out: CDK inhibition, Ki (μM) CDK9T1
Method in brief: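 ADP Glo luminescence, in-house: CDK4/D1, CDK6/D3 on RB-CTF substrate (Tris pH 7.5, MgCl2, DTT, BSA); CDK9/T1 on RBER-IRStide. Reaction 40 min, 37° C after ATP addition. 10-point 1:3 series, 10 μM to 0.5 nM. IC50 by 4-parameter logistic; Ki derived using ATP Km.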

CDK9/T1, sequence (P50750 whole entry): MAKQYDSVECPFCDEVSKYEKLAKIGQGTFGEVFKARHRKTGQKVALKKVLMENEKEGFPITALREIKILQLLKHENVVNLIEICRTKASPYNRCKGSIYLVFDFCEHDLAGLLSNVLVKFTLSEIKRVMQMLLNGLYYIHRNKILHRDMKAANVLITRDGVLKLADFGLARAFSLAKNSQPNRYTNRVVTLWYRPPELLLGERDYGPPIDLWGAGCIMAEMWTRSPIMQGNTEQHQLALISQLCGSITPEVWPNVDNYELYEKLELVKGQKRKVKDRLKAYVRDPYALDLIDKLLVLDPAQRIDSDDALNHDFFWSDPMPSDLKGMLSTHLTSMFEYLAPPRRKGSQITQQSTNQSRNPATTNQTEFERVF
CDK9/T1, sequence (O60563 whole entry partner): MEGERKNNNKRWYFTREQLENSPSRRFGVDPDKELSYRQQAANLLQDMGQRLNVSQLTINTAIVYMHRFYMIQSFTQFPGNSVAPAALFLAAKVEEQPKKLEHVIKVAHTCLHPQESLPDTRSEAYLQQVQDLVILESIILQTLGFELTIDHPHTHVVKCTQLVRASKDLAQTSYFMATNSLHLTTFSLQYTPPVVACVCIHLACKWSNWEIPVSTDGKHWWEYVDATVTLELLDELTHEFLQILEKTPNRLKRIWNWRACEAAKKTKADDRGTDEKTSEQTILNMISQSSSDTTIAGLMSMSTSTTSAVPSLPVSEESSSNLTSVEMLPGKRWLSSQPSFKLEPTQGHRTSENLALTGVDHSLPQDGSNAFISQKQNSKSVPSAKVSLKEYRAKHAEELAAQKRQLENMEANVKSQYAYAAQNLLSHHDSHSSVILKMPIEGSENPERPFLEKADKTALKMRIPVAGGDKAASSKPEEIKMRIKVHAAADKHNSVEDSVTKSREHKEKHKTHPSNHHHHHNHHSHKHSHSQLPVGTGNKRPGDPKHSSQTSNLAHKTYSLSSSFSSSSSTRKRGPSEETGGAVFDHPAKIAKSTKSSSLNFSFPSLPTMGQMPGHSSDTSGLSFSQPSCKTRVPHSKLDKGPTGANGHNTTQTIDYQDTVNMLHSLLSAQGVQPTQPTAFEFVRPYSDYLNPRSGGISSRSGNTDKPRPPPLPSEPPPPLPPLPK
T1 sequence (P50613 whole entry): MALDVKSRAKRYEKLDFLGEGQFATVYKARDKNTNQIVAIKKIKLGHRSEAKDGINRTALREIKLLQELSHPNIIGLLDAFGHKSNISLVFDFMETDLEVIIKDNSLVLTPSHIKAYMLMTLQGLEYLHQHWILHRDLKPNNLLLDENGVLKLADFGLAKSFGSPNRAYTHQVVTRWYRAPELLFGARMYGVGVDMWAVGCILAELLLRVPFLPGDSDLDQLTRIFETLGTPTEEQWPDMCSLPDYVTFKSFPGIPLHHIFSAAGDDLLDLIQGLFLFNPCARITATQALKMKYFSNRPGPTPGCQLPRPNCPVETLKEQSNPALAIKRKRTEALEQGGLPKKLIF
CDK6/D3, sequence (Q00534 whole entry): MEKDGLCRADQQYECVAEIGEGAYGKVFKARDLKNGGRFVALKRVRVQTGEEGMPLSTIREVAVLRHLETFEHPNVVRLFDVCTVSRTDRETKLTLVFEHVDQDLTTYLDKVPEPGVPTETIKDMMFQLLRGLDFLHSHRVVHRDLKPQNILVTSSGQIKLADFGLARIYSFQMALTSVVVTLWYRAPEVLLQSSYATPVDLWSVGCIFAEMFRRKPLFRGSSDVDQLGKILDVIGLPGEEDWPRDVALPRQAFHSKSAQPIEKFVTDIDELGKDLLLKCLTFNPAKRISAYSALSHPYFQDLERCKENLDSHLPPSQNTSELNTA
CDK6/D3, sequence (P30281 whole entry partner): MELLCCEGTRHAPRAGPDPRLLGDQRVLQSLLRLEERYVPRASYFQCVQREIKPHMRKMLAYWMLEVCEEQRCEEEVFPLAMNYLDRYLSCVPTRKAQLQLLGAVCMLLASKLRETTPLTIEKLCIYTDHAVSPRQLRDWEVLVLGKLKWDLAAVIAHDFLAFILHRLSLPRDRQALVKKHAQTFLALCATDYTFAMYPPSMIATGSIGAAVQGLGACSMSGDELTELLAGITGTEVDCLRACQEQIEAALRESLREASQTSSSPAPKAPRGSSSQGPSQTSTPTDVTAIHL
CDK4/D1, sequence (P11802 whole entry): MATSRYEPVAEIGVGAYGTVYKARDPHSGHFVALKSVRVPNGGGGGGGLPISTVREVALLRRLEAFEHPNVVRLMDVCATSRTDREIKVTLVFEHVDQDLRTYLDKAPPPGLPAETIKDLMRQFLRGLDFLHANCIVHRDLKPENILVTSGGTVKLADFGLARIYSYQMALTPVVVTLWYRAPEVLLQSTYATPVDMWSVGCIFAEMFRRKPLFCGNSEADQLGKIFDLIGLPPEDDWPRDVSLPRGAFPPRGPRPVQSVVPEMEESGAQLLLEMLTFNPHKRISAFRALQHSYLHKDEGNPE
CDK4/D1, sequence (P24385 whole entry partner): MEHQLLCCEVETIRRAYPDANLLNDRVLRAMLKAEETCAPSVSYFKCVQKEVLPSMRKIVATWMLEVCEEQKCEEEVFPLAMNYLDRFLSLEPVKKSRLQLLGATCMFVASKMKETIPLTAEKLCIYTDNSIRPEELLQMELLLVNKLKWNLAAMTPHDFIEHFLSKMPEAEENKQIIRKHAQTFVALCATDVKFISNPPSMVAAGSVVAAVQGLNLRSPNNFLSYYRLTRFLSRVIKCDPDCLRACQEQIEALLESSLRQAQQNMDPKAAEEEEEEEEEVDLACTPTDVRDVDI
T2 sequence (P06493 whole entry): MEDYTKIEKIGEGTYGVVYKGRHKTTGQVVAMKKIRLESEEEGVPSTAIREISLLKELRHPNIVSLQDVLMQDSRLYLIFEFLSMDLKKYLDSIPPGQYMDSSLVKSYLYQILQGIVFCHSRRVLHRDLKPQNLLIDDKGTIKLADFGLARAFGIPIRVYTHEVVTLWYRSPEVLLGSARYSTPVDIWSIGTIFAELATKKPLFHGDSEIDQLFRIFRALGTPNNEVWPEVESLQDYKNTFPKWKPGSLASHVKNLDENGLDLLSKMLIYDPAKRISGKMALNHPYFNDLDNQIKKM

Structure (SMILES) | remaining activity at 10 µM (CDKs and other kinases [1]) [%] | remaining activity at 10 µM (CDKs and other kinases [2]) [%] | remaining activity at 10 µM (CDKs and other kinases [3]) [%] | remaining activity at 10 µM (CDK6/D3) [%] | GI50 (leukemia cell lines) [µM] | remaining activity at 10 µM (CDK4/D1) [%] | Ki (CDK9/T1) [µM] | Ki (CDKs and other kinases [1]) [µM] | Ki (CDKs and other kinases [2]) [µM] | Ki (CDKs and other kinases [3]) [µM] | Ki (CDK6/D3; read-out: CDK inhibition, Ki (μM) CDK6D3) [µM] | Ki (CDK4/D1; read-out: CDK inhibition, Ki (μM) CDK4D1) [µM]
CCOc1ccc(Nc2ccc3ncc(-c4nc(N[C@H]5CC[C@H](N)CC5)ncc4C)n3c2)cn1 [Compound 67, (1r,4r)-N^1-(4-(6-((6-Ethoxypyridin-3-yl)amino)imidazo [1,2-a]pyridin-3-yl)-5-methylpyrimidin-2-yl)cyclohexane-1,4-diamine] | 52 | 38 | 10 | 29 | 0.128 ± 0.04 | 31 | 0.017 | – | – | – | – | –
Cc1ccc(Nc2ccc3ncc(-c4nc(N[C@H]5CC[C@H](N)CC5)ncc4C)n3c2)cn1 [Compound 69, (1r,4r)-N^1-(5-Methyl-4-(6-((6-methylpyridin-3-yl)amino)imidazo[1,2-a]pyridin-3-yl)pyrimidin-2-yl)cyclohexane-1,4-diamine] | – | – | – | 25 | 0.199 ± 0.02 | 24 | 0.023 | 0.95 | 2.95 | 0.61 | – | –
Cc1cnc(N[C@H]2CC[C@H](N)CC2)nc1-c1cnc2ccc(Nc3cnccn3)cn12 [Compound 70, (1r,4r)-N^1-(5-Methyl-4-(6-(pyrazin-2-ylamino)imidazo [1,2-a]pyridin-3-yl)pyrimidin-2-yl)cyclohexane-1,4-diamine] | – | – | – | 70 | 0.212 ± 0.104 | 31 | 0.62 | 3.28 | 4.32 | 1.42 | – | –
Cc1cnc(N[C@H]2CC[C@H](N)CC2)nc1-c1cnc2ccc(Nc3cccnn3)cn12 [Compound 71, (1r,4r)-N^1-(5-Methyl-4-(6-(pyridazin-3-ylamino)imidazo [1,2-a]pyridin-3-yl)pyrimidin-2-yl)cyclohexane-1,4-diamine] | – | – | – | 66 | 0.383 ± 0.119 | 35 | 0.203 | 5.19 | 6.05 | 2.66 | – | –
Cc1cnc(N[C@H]2CC[C@H](N)CC2)nc1-c1cnc2ccc(NC(=O)Cc3ccccc3)cn12 [Compound 73, N-(3-(2-(((1r,4r)-4-Aminocyclohexyl)amino)-5-methylpyrimidin-4-yl)imidazo[1,2-a]pyridin-6-yl)-2-phenylacetamide] | 63 | 75 | 62 | 49 | 0.752 ± 0.055 | 53 | 0.469 | – | – | – | – | –
COc1ccc(-c2ccc3ncc(-c4nc(N[C@H]5CC[C@H](N)CC5)ncc4Cl)n3c2)cc1 [Compound 82, (1r,4r)-N^1-(5-Chloro-4-(6-(4-methoxyphenyl)imidazo [1,2-a]pyridin-3-yl)pyrimidin-2-yl)cyclohexane-1,4-diamine] | – | – | – | 99 | 0.054 ± 0.015 | 20 | 0.018 | 0.15 | 0.82 | 0.22 | – | –
N[C@H]1CC[C@H](Nc2ncc(Cl)c(-c3cnc4ccc(-c5ccc(N6CCNCC6)nc5)cn34)n2)CC1 [Compound 84, (1r,4r)-N^1-(5-Chloro-4-(6-(6-(piperazin-1-yl)pyridin-3-yl)imidazo[1,2-a]pyridin-3-yl)pyrimidin-2-yl)cyclohexane-1,4-diamine] | 10 | 51 | 39 | 12 | 0.035 ± 0.006 | 9 | 0.033 | – | – | – | – | –
N[C@H]1CC[C@H](Nc2ncc(Cl)c(-c3cnc4c(-c5ccccc5)cc(C(F)(F)F)cn34)n2)CC1 [Compound 85, (1r,4r)-N^1-(5-Chloro-4-(8-phenyl-6-(trifluoromethyl)imidazo[1,2-a]pyridin-3-yl)pyrimidin-2-yl)cyclohexane-1,4-diamine] | – | – | – | 43 | 1.32 ± 0.549 | 75 | 0.13 | 0.048 | 7.44 | 0.77 | – | –
N[C@H]1CC[C@H](Nc2ncc(Cl)c(-c3cnc4ccc(NC(=O)c5ccccc5)cn34)n2)CC1 [Compound 87, N-(3-(2-(((1r,4r)-4-Aminocyclohexyl)amino)-5-chloropyrimidin-4-yl)imidazo[1,2-a]pyridin-6-yl) benzamide] | 14 | 31 | 19 | 39 | 0.135 ± 0.057 | 73 | 0.073 | – | – | – | – | –

Further lines, results first:

remaining activity at 10 µM (CDKs and other kinases [1]) [%] | remaining activity at 10 µM (CDKs and other kinases [2]) [%] | remaining activity at 10 µM (CDKs and other kinases [3]) [%] | remaining activity at 10 µM (CDK6/D3) [%] | GI50 (leukemia cell lines) [µM] | remaining activity at 10 µM (CDK4/D1) [%] | Ki (CDK9/T1) [µM] | Ki (CDKs and other kinases [1]) [µM] | Ki (CDKs and other kinases [2]) [µM] | Ki (CDKs and other kinases [3]) [µM] | Ki (CDK6/D3; read-out: CDK inhibition, Ki (μM) CDK6D3) [µM] | Ki (CDK4/D1; read-out: CDK inhibition, Ki (μM) CDK4D1) [µM] | Structure (SMILES)
– | – | – | 23 | 0.127 ± 0.002 | 37 | 0.033 | 0.71 | 2.18 | 0.35 | – | – | Cc1cnc(N[C@H]2CC[C@H](N)CC2)nc1-c1cnc2ccc(Nc3ccc(OC(F)F)nc3)cn12 [Compound 68, (1r,4r)-N^1-(4-(6-((6-(Difluoromethoxy)pyridin-3-yl)amino)imidazo[1,2-a]pyridin-3-yl)-5-methylpyrimidin-2-yl) cyclohexane-1,4-diamine]
57 | 69 | 52 | 85 | 1.46 ± 0.476 | 77 | 0.194 | – | – | – | – | – | Cc1cnc(N[C@H]2CC[C@H](N)CC2)nc1-c1cnc2ccc(NC(=O)c3ccc(F)cc3)cn12 [Compound 72, N-(3-(2-(((1r,4r)-4-Aminocyclohexyl)amino)-5-methylpyrimidin-4-yl)imidazo[1,2-a]pyridin-6-yl)-4-fluorobenzamide]
50 | 39 | 11 | 46 | 0.349 ± 0.086 | 41 | 0.02 | – | – | – | – | – | Cc1cnc(N[C@H]2CC[C@H](N)CC2)nc1-c1cnc2ccc(Oc3cccnc3)cn12 [Compound 74, (1r,4r)-N^1-(5-Methyl-4-(6-(pyridin-3-yloxy)imidazo[1,2-a]pyridin-3-yl)pyrimidin-2-yl)cyclohexane-1,4-diamine]
– | – | – | 80 | 0.008 ± 0.001 | 13 | 0.004 | 0.079 | 0.27 | 0.071 | – | – | N[C@H]1CC[C@H](Nc2ncc(Cl)c(-c3cnc4ccc(-c5ccccc5)cn34)n2)CC1 [Compound 79, (1r,4r)-N^1-(5-Chloro-4-(6-phenylimidazo[1,2-a]pyridin-3-yl)pyrimidin-2-yl)cyclohexane-1,4-diamine]
– | – | – | – | 0.025 ± 0.011 | – | 0.008 | 0.21 | 2.01 | 0.51 | 1.01 | 1.58 | COc1ccc(-c2ccc3ncc(-c4nc(N[C@H]5CC[C@H](N)CC5)ncc4Cl)n3c2)cn1 [Compound 81, (1r,4r)-N^1-(5-Chloro-4-(6-(6-methoxypyridin-3-yl)imidazo[1,2-a]pyridin-3-yl)pyrimidin-2-yl)cyclohexane-1,4-diamine]
– | – | – | 80 | 0.052 ± 0.011 | 27 | 0.065 | 0.58 | 2.56 | 0.91 | – | – | Cc1noc(C)c1-c1ccc2ncc(-c3nc(N[C@H]4CC[C@H](N)CC4)ncc3Cl)n2c1 [Compound 83, (1r,4r)-N^1-(5-Chloro-4-(6-(3,5-dimethylisoxazol-4-yl)imidazo[1,2-a]pyridin-3-yl)pyrimidin-2-yl)cyclohexane-1,4-diamine]
– | – | – | 47 | 0.086 ± 0.005 | 25 | 0.216 | 0.044 | 2.64 | 0.25 | – | – | N[C@H]1CC[C@H](Nc2ncc(Cl)c(-c3cnc4c(-c5cccnc5)cc(C(F)(F)F)cn34)n2)CC1 [Compound 86, (1r,4r)-N^1-(5-Chloro-4-(8-(pyridin-3-yl)-6-(trifluoromethyl)imidazo[1,2-a]pyridin-3-yl)pyrimidin-2-yl)cyclohexane-1,4-diamine]
